From article PMC8758724, “Molecular mechanism of agonism and inverse agonism in ghrelin receptor” (Nature Communications, 2022)
Entries after “also recorded” stand apart in the source; their conditions may differ.

Legend:
[1] = test system: wild-type ghrelin receptor; assay: IP1 accumulation, wild-type ghrelin receptor, HEK293 cells, 37 °C 2 h, Cisbio IP1 kit; format: cell-based, human; conditions: WT
Experimental: Fig. 1 Overall structures of ghrelin receptors bound to inverse agonist and agonist. a Dose-dependent responses of endogenous agonist ghrelin, inverse agonist PF-05190457 and antagonist compound 21 containing 10 nM ghrelin peptide at wild-type ghrelin receptor measured by cellular IP1 accumulation assays. […] Data represent the mean ± SEM from n = 3 biologically independent experiments performed in triplicate. b View from within the plane of the membrane. The inverse agonist-bound ghrelin receptor is represented as a wheat cartoon, and PF-05190457 is shown as a marine blue sphere. Cryo-EM structure of the agonist ghrelin-bound ghrelin receptor-Gαo1-scFv16 complex. c Ghrelin peptides and receptors are shown as deep salmon spheres and aquamarine cartoons, respectively. The Go heterotrimer and scFv16 are shown in the gray cartoon. d View from the extracellular side of the membrane. […]
IP accumulation was measured using Cisbio IP1 assay kit (Cisbio, 62IPAPEB), which has been previously described. […] IP1 was quantified using Synergy H1 microplate reader (BioTek) with excitation at 320 nm, emission at 620 nm, and 665 nm. The accumulation of IP1 was calculated according to a standard dose–response curve in GraphPad Prism 8 (GraphPad Software). […]

ghrelin receptor mutants = assay: IP1 accumulation, ghrelin receptor mutants, HEK293 cells, 37 °C 2 h (compound 21 containing 10 nM ghrelin); format: cell-based, human
Excerpt: Fig. 2 The binding mode of PF-05190457 with the ghrelin receptor. a The detailed binding mode of PF-05190457 in the orthosteric pocket of the ghrelin receptor. The |Fo| − |Fc| omit map (contoured at 3.0 σ) for PF-05190457 (shown as marine blue sticks). […] The diazaspiro core is shown in pink, arm-1 is sky blue, and arm-2 is light green. The red solid lines indicate hydrogen bonds involved in interactions with the side chains of key residues. d–f Key residues of the ghrelin receptor (wheat sticks) involved in ligand binding in cavity III (d), cavity I (e), and cavity IV (f). The binding pocket is highly hydrophobic, and the particular polar network is shown as black dotted lines. g IP1 accumulation induced by the inverse agonist PF-05190457 and antagonist compound 21. Bars represent the difference in the calculated potency (pIC50) of the inverse agonist for mutations relative to the WT ghrelin receptor. Data are colored according to extent of effect. nd not detected, **P < 0.01, ***P < 0.001 (one-way analysis of variance (ANOVA) followed by Dunnett’s test, compared with the response of WT, P < 0.001, P < 0.001, P < 0.001, P > 0.999, nd, nd, P = 0.05, nd, P < 0.001, P < 0.001, nd, nd, nd, nd, nd, nd, P < 0.01, P = 0.264, P < 0.001, nd, P < 0.001, nd from left to right). Data represent the mean ± SEM from n = 3 biologically independent experiments performed in triplicate. […] The salt bridges between E124^3.33 and R283^6.55 as well as between R102^2.63 and Q120^3.29, are broken upon PF-05190457 binding.
To measure the activity of inverse agonist PF-05190457 (Tocris, Cat. No. 6350), we carried out IP1 accumulation assays for ghrelin receptor independent of agonist. The agonist ghrelin and antagonist compound 21 were also performed as the control. The cDNA of ghrelin receptor subcloned into pcDNA3.1(+) expression vector with a HA signal sequence followed by a Flag tag at the N-terminus. Point mutations used in our study were generated by using Q5 site-Directed Mutagenesis kit (NEB). All the constructs were verified by sequencing. The constructs were expressed in HEK293 cells using PEI transfection reagent (YEASEN, 40815es03) according to the manufacturer’s instruction. Cells were harvested 48 h post transfection.
IP accumulation was measured using Cisbio IP1 assay kit (Cisbio, 62IPAPEB), which has been previously described. In brief, the harvested cells were distributed in a low volume 96-well dish and stimulated with increased concentration of inverse agonist PF-05190457, agonist ghrelin peptide or antagonist compound 21 containing 10 nM ghrelin peptide at 37 °C for 2 h. After that, d2-labeled IP1 and cryptate-labeled anti-IP1 monoclonal antibody dissolved in Lysis Buffer were added to the wells. After 1 h incubation at room temperature. IP1 was quantified using Synergy H1 microplate reader (BioTek) with excitation at 320 nm, emission at 620 nm, and 665 nm. The accumulation of IP1 was calculated according to a standard dose–response curve in GraphPad Prism 8 (GraphPad Software). Data were represented as the mean ± SEM from three independent experiments and all experiments were repeated at least three times.
Supplementary Fig. 6: IP1 accumulation assay.
(a) Expression level of the ghrelin receptor mutants. Data represent the mean ± SEM from three independent experiments performed in triplicate. ns, not significant, **p < 0.01, ***p < 0.001 (one-way analysis of variance [ANOVA] followed by Dunnett’s test, compared with the response […]
0.001, p=0.996, p=0.008, p=0.999 from left to right). Data represent the mean ± SEM from n=3 biologically independent experiments performed in triplicate.
(b) IP1 accumulation measurement induced by inverse agonist PF-05190457(left), agonist ghrelin (middle) and antagonist compound 21 (right). ns, not significant; nd, not detected; ***p < 0.001 […]
< 0.001, nd, nd, nd, p=0.264, nd, nd from left to right). Data represent the mean ± SEM from […]

ghrelin receptor [2] = conditions: cited from earlier work
Excerpt: The ghrelin receptor is activated by endogenous ghrelin peptide and contains constitutive activity as ~50% of the maximal activity in the absence of ghrelin peptide.

ghrelin receptor [3] = conditions: cited from earlier work; remark: listed apart in the source
Excerpt: (50% activity independent of the endogenous ligand ghrelin). The ghrelin receptor exerts a wide range of physiological functions, including appetite regulation, alcohol consumption, adipocyte metabolism, and glucose homeostasis[11]–[14], due to its broad distribution and multiple signaling pathways through divergent G-protein coupling or β-arrestin recruitment. The endogenous agonist ghrelin is a 28-amino acid peptide secret ...

For Cc1cc(-c2ccc3c(c2)CC[C@H]3N2CC3(CCN(C(=O)Cc4cn5cc(C)sc5n4)CC3)C2)ncn1 [PF-05190457], the “effect on constitutive (basal) activity of the ghrelin receptor” value [1] was “functions as an inverse agonist to significantly reduce basal activity; also recorded: significantly reduced”, the “inverse agonism potency, effect of mutation” value (shortened to “inverse agonism potency”) (ghrelin receptor mutants; D99^2.60A) was “significantly reduced the potency of inverse agonism” and the “inverse agonism potency” value (ghrelin receptor mutants; E124^3.33A) was “impaired the inverse agonism potency”. The “inverse agonism potency” value (ghrelin receptor mutants; F119^3.28A) was “essential for the inverse agonism potency”, the “inverse agonistic activity, effect of mutation” value (from here on “inverse agonistic activity”) (ghrelin receptor mutants; F279^6.51A) was “significantly reduced the inverse agonistic activity; also recorded: significantly reduced the potency of inverse agonism” and the “inverse agonistic activity” value (ghrelin receptor mutants; F312^7.42A) was “significantly reduced the inverse agonistic activity; also recorded: significantly reduced the potency of inverse agonism”. The “inverse agonism potency” value (ghrelin receptor mutants; Q120^3.29A) was “essential for the inverse agonism potency”, the “inverse agonism potency” value (ghrelin receptor mutants; R283^6.55A) was “impaired the inverse agonism potency” and the “inverse agonism potency” value (ghrelin receptor mutants; S308^7.38A) was “decreased the inverse agonism potency”. For the same molecule, the “inverse agonistic activity” value (ghrelin receptor mutants; W276^6.48A) was “significantly reduced the inverse agonistic activity; also recorded: significantly reduced the potency of inverse agonism”.

In the case of Cc1nc2ccc(Oc3ccc(Br)cc3F)nc2c(=O)n1C[C@H]1CCCN(C(C)C)C1 [compound 21], the “potency, effect of mutation” value (ghrelin receptor mutants; F279^6.51A) is reported as “impaired the potency”, the “potency, effect of mutation” value (ghrelin receptor mutants; F312^7.42A) is reported as “impaired the potency” and the “potency, effect of mutation” value (ghrelin receptor mutants; W276^6.48A) is reported as “impaired the potency”. For the same molecule, the “effect on constitutive activity of the ghrelin receptor” value (ghrelin receptor [2]) was “had no effect on the constitutive activity of the ghrelin receptor”.

For “unacylated form of ghrelin: unacylated form of ghrelin (GSSFLSPEHQRVQQRKESKKPPAKLQPR; Ghrelin-28 unacylated; UniProt Q9UBU3 24-51, looked up)”, the “activation of the ghrelin receptor” value (ghrelin receptor [3]) is listed as “does not bind or activate the ghrelin receptor at all” and the “binding to the ghrelin receptor” value (ghrelin receptor [3]) is listed as “does not bind”.
